Patent US20230233566A1, “INHIBITION OF BMI1 ELIMINATES CANCER STEM CELLS AND ACTIVATES ANTITUMOR IMMUNITY” (The Regents of the University of California, priority 2020, published 2023)

Experiments:
BMI-1 = BMI-1 (Homo sapiens, UniProt P35226); conditions: cell-free assay; cited from earlier work
[1] = phase 1 study; cited from earlier work
HNSCC = assay: 4NQO mouse model of HNSCC: lesion area, histology, invasion grade
Protocol: Bmi1^CreER (JAX:010531) and R26^tdTomato (JAX:007908) mouse strains were cross-mated to generate Bmi1^CreER;R26^tdTomato. K14^CreER (JAX:005107) and Bmi1^flox/flox (JAX: 028974) mouse strains were cross-mated to generate K14^CreER; Bmi1^flox/flox. […] For induction of HNSCC, six-week-old mice were treated with drinking water containing 50 ug/ml 4NQO (Santa Cruz, Cat #256815) for 16 weeks and then given normal drinking water for tumor formation and lymph node metastasis. For lineage tracing and Bmi1 knock out studies, mice were intraperitoneally injected with tamoxifen (9 mg per 40 g body weight; Sigma-Aldrich, Cat #T5648) to activate Cre.
Cisplatin (Sigma-Aldrich, Cat #479306) was dissolved in saline. PTC209 (MedChem Express, Cat #HY-15888) was dissolved in 14% DMSO, 36% polyethylene glycol 400 (Sigma-Aldrich, Cat #202304) and 50% polypropylene glycol (Sigma-Aldrich Cat #4347). […]
Briefly, mice were sacrificed, and tongues and cervical lymph nodes were harvested immediately and the lesion surface areas were measured. […] The SCC number was counted and areas were measured as described before (Chen et al., 2017). The HNSCC invasiveness was scored based on the following criteria: showing signs of normal or epithelial dysplasia appearance (grade 1); distinct invasion, unclearness of basement membrane, drop and diffuse infiltration into the superficial portion of the muscle layer (grade 2); loss of the basement membrane, extensive invasion into deep muscle layer (grade 3). To assess lymph node metastasis, the sections of cervical lymph nodes were immunostained with anti-PCK antibodies which specifically detected epithelial tumor cells in lymph nodes (Santa Cruz, Cat #sc-8018). The percentage of lymph nodes with metastasis and their metastatic areas were measured.

CD8+ T cells = assay: Immunostaining of CD8+ T cells in HNSCC; format: in vivo, mouse
Protocol: (§1) The immunocomplexes were detected and visualized using related secondary antibodies conjugated with Cy2 or Cy3 (Jackson ImmunoResearch Laboratories). […] At least three sections from each HNSCC lesions were immunostained and analyzed. Tumor cells (>150) and CD8+, Ac-casp3+ and Tomato^+ cells of these tumor cell areas were counted manually in each section. The percentage of CD8+, Ac-casp3^+ and Tomato^+ cells were calculated by dividing those cells with tumor cells and averaged from the sections.

BMI1+ CSCs [2] = assay: BMI1 immunostaining of CSCs in HNSCC; format: in vivo, mouse; conditions: FIG. 16C-16D
[3] = tested on: HNSCC lymph node metastasis; assay: Cervical lymph node metastasis by anti-PCK immunostaining; format: in vivo, mouse; conditions: given concurrently with PTC209 plus anti-PD1
Protocol: Tumor growth and cervical lymph node metastasis were examined as described before (Chen et al., 2017). Briefly, mice were sacrificed, and tongues and cervical lymph nodes were harvested immediately and the lesion surface areas were measured. For histological analysis and immunostaining, longitudinally cut tongues (dorsal/ventral) and intact lymph nodes were fixed overnight in 10% buffered formalin and paraffin-embedded. Tissue blocks were cut into 10-15 sections in 4 μm thickness and stained with hematoxylin and eosin (H&E). The SCC number was counted and areas were measured as described before (Chen et al., 2017). […] To assess lymph node metastasis, the sections of cervical lymph nodes were immunostained with anti-PCK antibodies which specifically detected epithelial tumor cells in lymph nodes (Santa Cruz, Cat #sc-8018). The percentage of lymph nodes with metastasis and their metastatic areas were measured.

HNSCC tumor cells = assay: Anti-active caspase-3 (Ac-casp3) immunostaining of apoptosis in HNSCC; format: in vivo, mouse; conditions: given concurrently with PTC209 plus anti-PD1
Protocol: as §1

BMI1 [4] = assay: BMI1 expression in HNSCC tumors by immunostaining and Western blot; format: in vivo, mouse; conditions: HNSCC, FIG. 18
Protocol: (§2) Cells were lysed using the radioimmunoprecipitation assay (RIPA) buffer (Sigma-Aldrich, Cat #R0278) added with a cocktail of protease inhibitors (Thermo Fisher Scientific, Cat ##78430) and phosphatase inhibitors (Sigma-Aldrich, Cat #4906845001). Protein extracts were resolved on a 10% or 15% SDS polyacrylamide gel and then transferred to a polyvinylidene difluoride membrane. Membranes were blocked with 5% milk for 1 h and incubated with primary antibodies overnight at 4° C. […] The signals were detected using the Clarity Western ECL kit (Bio-Rad, Cat #1705060). […] After treatment, supernatants were collected, and the protein levels of CCL5, CXCL9, CXCL10 and CXCL11 were measured with ELISA (R&D Systems, Cat #DRN00B, DCX900, DIP100, DCX110) according to the manufacturer's instructions.

BMI1+ CSCs [5] = assay: In vivo labeling and lineage tracing of Tomato+ BMI1+ CSCs; parameters: species or system mouse; conditions: tamoxifen 1 day prior to sacrifice, treated 4 weeks
Protocol: as §1

[6] = tested on: cGAS-STING-IRF3 signaling; assay: Western blot of phosphorylated STING, TBK1, IRF3; format: cell-based, human
Protocol: (§3) Cells were lysed using the radioimmunoprecipitation assay (RIPA) buffer (Sigma-Aldrich, Cat #R0278) added with a cocktail of protease inhibitors (Thermo Fisher Scientific, Cat ##78430) and phosphatase inhibitors (Sigma-Aldrich, Cat #4906845001). Protein extracts were resolved on a 10% or 15% SDS polyacrylamide gel and then transferred to a polyvinylidene difluoride membrane. Membranes were blocked with 5% milk for 1 h and incubated with primary antibodies overnight at 4° C. Primary antibodies used in this study were: anti-phospho-STING (Ser366) (1:1,000; Cell Signaling Technology, Cat #19781), anti-STING (1:1,000; Cell Signaling Technology, Cat #13647), anti-phospho-TBK1 (Ser172) (1:1,000; Cell Signaling Technology, Cat #5483), anti-TBK1 (1:1,000; Cell Signaling Technology, Cat #3504), anti-phospho-IRF3 (Ser396) (1:1,000; Cell Signaling Technology, Cat #29047), anti-IRF3 (1:1,000; Cell Signaling Technology, Cat #4302), anti-BMI1 (1:1,000; Cell Signaling Technology, Cat #6964), anti-Ubiquityl-Histone H2A (Lys119) (1:1000, Cell Signaling Technology, Cat #8240), anti-phospho Histone H2A.X (Ser139) (1:1000; Cell Signaling Technology, Cat #9718), and anti-GAPDH (1:1000; Cell Signaling Technology, Cat #5174), anti-Histone H3 (1:2,000; Cell Signaling Technology, Cat #4499). The signals were detected using the Clarity Western ECL kit (Bio-Rad, Cat #1705060). To measure the protein levels of CCL5, CXCL9, CXCL10 and CXCL11, cells were treated with PTC209 or shBMI1 knockdown for 48 hr. After treatment, supernatants were collected, and the protein levels of CCL5, CXCL9, CXCL10 and CXCL11 were measured with ELISA (R&D Systems, Cat #DRN00B, DCX900, DIP100, DCX110) according to the manufacturer's instructions.

BMI1 [7] = assay: Western blot of BMI1 and H2AUb in SCC23 and SCC1 cells; format: cell-based, human
Protocol: Human SCC23 and SCC1 cells were grown in DMEM containing 10% FBS and antibiotics (streptomycin and penicillin) at 37° C. in a 5% CO2 atmosphere. To generate lentiviruses, scramble control (shCtrl, Addgene, Cat #1864; see Sarbassov et al Science 2005 Feb. 18; 307(5712):1098-101) and BMI1 specific shRNA lentiviral plasmids (shBmi1, Sigma-Aldrich, Cat #TRCN0000020156, comprising […], SEQ ID NO:35) were transfected into HEK293T cells with two helper plasmids psPAX2 (Addgene, Cat #12260) and pMD2.G (Addgene, Cat #12259). Viral supernatant was harvested 72 h after transfection and passed through a 0.45 μm filter to remove cell debris and live cells. Collected lentiviruses were used directly to infect cells with the addition of polybrene (Sigma-Aldrich, Cat #H9268), or frozen at −80° C. for later use. […]
as §2, with “#4906845001).” for “#4906845001). Protein extracts were resolved on a 10% or 15% SDS polyacrylamide gel and then transferred to a polyvinylidene difluoride membrane. Membranes were blocked with 5% milk for 1 h and incubated with primary antibodies overnight at 4° C.”

IFNβ = assay: qRT-PCR of IFNβ mRNA; format: cell-based, human; conditions: SCC23 cells
Protocol: (§4) For qRT-PCR, total RNA was prepared using TRIzol reagent (Thermo Fisher Scientific Cat #15596026), and 1 μg of RNA was reversely transcribed with random primer (Thermo Fisher Scientific Cat #48190011), dNTP mix (Thermo Fisher Scientific, Cat #18427013), and M-MuLV Reverse Transcriptase (New England Biolabs, Cat #M0253L). The levels of mRNA were […] measured using a SYBRGreen supermix (Bio-Rad, Cat #1708880). GAPDH was used as an internal control.

pH2A.X = assay: DNA damage in SCC23 and SCC1 cells (pH2A.X, alkaline comet assay); format: cell-based, human
Protocol: as §3
Single cell gel electrophoresis comet assays were performed using the SCGE assay Kit (Enzo Life Sciences, Cat #ADI-900-166). Following the treatment, cells were mixed with low melting point agarose at a volume ratio of 1:50, and 100 μl of aliquots were loaded onto pre-warmed slides. Slides were incubated in pre-chilled lysis solution for 1 h and then in pre-chilled alkaline solution for 1 h. Electrophoresis was run at 22 V in the TBE buffer for 30 min. Comets were stained with CYGREEN dye for 30 min and imaged. 50 individual cells at least per sample were evaluated in duplicates by the CASP Version 1.2.2 analysis tool.

[8] = tested on: promoters of CCL5, CXCL9, CXCL10 and CXCL11; assay: ChIP-qPCR on chemokine promoters; format: cell-based, human; conditions: SCC23 cells
Protocol: ChIP-qPCR assays were performed as previously described (Ding et al, 2013). Briefly, SCC cells were sequentially treated with dimethyl 3,3′-dithiobispropionimidate-HCl (DTBP; Cat #20665, Thermo Fisher Scientific) solution and formaldehyde, and harvested with a cell scraper. The cell pellet was lysed with ChIP lysis buffer and sonicated to generate 200-500 bp DNA fragments with a sonicator. The fragmented chromatins were immunoprecipitated with anti-BMI1 (Cell Signaling Technology, Cat #6964), anti-Ubiquityl-Histone H2A (Lys119) (Cell Signaling Technology, Cat #8240) overnight at 4° C. The precipitated DNA-chromatin products were purified with ChIP DNA clean & concentrator kit (Cat #D5205, Zymo Research) and the DNA levels were quantified by qPCR. Data is presented as the percentage of input DNA.

cytosolic dsDNA = assay: Cytosolic dsDNA staining (PicoGreen/MitoTracker); format: cell-based, human; conditions: SCC23 and SCC1 cells
Protocol: Following the treatment, SCC23 and SCC1 cells were incubated with culture media containing PicoGreen (dsDNA stain, 200-fold dilution, Thermo Fisher Scientific, Cat #P11496) and MitoTracker ([…], 100 nM, Thermo Fisher Scientific, Cat #M7512). One hour after incubation, cells were fixed with 4% paraformaldehyde for 10 min. Cells were then washed twice with PBS and stained with DAPI (Sigma-Aldrich, Cat #D9542) and mounted with SlowFade Antifade Reagents (Thermo Fisher Scientific, Cat #536937). Staining was imaged and assessed using a Leica SP5X laser scanning confocal microscope.

SCC23 cells = assay: qRT-PCR of ATM, DNA-PKcs, MRE11, JUN, FOSL1, MMP3, MMP9 in SCC23 cells; format: cell-based, human
Protocol: as §4

[9] = given concurrently with PTC209 plus anti-PD1

BMI-1, sequence (P35226 whole entry, species assumed): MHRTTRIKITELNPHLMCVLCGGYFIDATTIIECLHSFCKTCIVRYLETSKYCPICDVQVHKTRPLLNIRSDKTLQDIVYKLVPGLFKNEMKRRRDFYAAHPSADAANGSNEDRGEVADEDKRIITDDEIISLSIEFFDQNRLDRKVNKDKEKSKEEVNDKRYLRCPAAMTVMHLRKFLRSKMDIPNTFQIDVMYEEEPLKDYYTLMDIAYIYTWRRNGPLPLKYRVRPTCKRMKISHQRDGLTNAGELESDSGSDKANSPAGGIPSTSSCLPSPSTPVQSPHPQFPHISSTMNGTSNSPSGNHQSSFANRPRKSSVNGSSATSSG
BMI-1, sequence (Q06587 whole entry partner, species assumed): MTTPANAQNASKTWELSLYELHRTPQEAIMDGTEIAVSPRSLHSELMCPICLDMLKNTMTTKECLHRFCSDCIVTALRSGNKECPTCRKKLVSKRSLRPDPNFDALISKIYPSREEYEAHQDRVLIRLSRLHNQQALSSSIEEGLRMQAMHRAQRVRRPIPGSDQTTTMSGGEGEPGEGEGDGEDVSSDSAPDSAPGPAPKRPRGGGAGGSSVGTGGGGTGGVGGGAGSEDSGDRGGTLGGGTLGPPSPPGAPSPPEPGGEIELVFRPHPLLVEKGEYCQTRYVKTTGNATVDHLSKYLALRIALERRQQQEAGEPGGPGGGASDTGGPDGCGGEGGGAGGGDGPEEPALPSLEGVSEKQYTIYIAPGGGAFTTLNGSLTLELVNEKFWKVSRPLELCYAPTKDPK

O=C1C(=Cc2cccnc2)C(=O)c2ccccc21 [PRT4165, 2-(3-pyridinylmethylene)-1H-indene-1,3(2H)-dione]
IC50 (BMI-1): 3.9 µM

Cc1nc2ccc(F)cc2n1-c1nc(N)c(F)c(Nc2ccc(C(F)(F)F)cc2)n1 [PTC596, 5-fluoro-2-(6-fluoro-2-methyl-1H-benzimidazol-1-yl)-N-[4-(trifluoromethyl)phenyl]pyrimidine-4,6-diamine]
tolerability [1]: tolerable with manageable gastrointestinal side effects

Cc1ccc(-c2ccc3c(c2)C=C(C(=O)Nc2ccc(C[N+](C)(C)C4CCOCC4)cc2)CCC3)cc1.[Cl-] [TAK779]
HNSCC growth (histological analysis) (HNSCC; [9]): significantly reversed the inhibition of HNSCC growth
visible lesion areas (HNSCC; [9]): significantly restored visible lesion areas
CD8+ T cells infiltration in HNSCC (CD8+ T cells; [9]): significantly abrogated CD8+ T cells infiltration in HNSCC
BMI1+ CSCs in HNSCC (strong BMI1 staining) (BMI1+ CSCs [2]): does not affect CSCs in HNSCC
lymph node metastasis of HNSCC [3]: significantly lessened the inhibition of lymph node metastasis
apoptosis in HNSCC (HNSCC tumor cells): attenuated apoptosis in HNSCC

N.N.[Cl][Pt][Cl] [cisplatin]
lesion surface areas (HNSCC; 4NQO-induced HNSCC, Bmi1CreER;RosatdTomato mice, treated 4 weeks): reduced the lesion surface areas
CD8+ T cell infiltration in HNSCC (CD8+ T cells; 4NQO-induced HNSCC, treated 4 weeks): did not significantly increase CD8+ T cell infiltration
Bmi1 expression in Tomato+ CSCs (MFI of BMI1 staining) (BMI1 [4]): induces Bmi1 expression in Tomato^+ CSCs
BMI1+ CSCs in HNSCC (in vivo labeling) (BMI1+ CSCs [5]): significantly enriched BMI1^+ CSCs

shBMI1: BMI1 specific shRNA lentiviral plasmids (Sigma-Aldrich, Cat #TRCN0000020156), SEQ ID NO:35 (CCGGCCTAATACTTTCCAGATTGATCTCGAGATCAATCTGGAAAGTATTAGGTTTTT)
phosphorylation of STING (S366), TBK1 (S172) and IRF3 (S396) ([6]; SCC1 cells): induction of phosphorylation of STING (S366), TBK1 (S172) and IRF3 (S396) in SCC1 cells
phosphorylation of STING (S366), TBK1 (S172) and IRF3 (S396) ([6]; SCC23 cells): induction of phosphorylation of STING (S366), TBK1 (S172) and IRF3 (S396) in SCC23 cells
BMI1 and H2AUb levels (BMI1 [7]): reduced the expression of BMI1
IFNβ mRNA expression (IFNβ): induction of IFNβ mRNA expression in SCC23 cells
Olive tail moment (pH2A.X; alkaline comet assay): significantly increased the Olive tail moment in SCC23 and SCC1 cells
pH2A.X (pH2A.X; immunostaining and Western blot): increased pH2A.X in SCC23 and SCC1 cells
levels of BMI1 on the promoters of CCL5, CXCL9, CXCL10 and CXCL11 [8]: reduction of BMI1 occupied on the promoters of CCL5, CXCL9, CXCL10, and CXCL11 in SCC23 cells
levels of H2AUb marks on the promoters of CCL5, CXCL9, CXCL10 and CXCL11 [8]: reduction of H2AUb levels on the promoters of CCL5, CXCL9, CXCL10, and CXCL11 in SCC23 cells
accumulation of cytosolic dsDNA (cytosolic dsDNA): induced the accumulation of cytosolic dsDNA
ATM, DNA-PKcs, and MRE11 mRNA expression (SCC23 cells): does not affect the expression of ATM, DNA-PKcs, and MRE11
JUN, FOSL1, MMP3, and MMP9 mRNA expression (SCC23 cells): does not change the expression of JUN, FOSL1, MMP3, and MMP9 significantly
